Results as given in patent publication US8283356B2, “2,4- Di(hetero)-arylamino-pyrimidine derivatives as ZAP-70 and/or SYK inhibitors” (Novartis AG, priority 2003, dated 2012).

Biological target: T1, ZAP-70 (Homo sapiens, UniProt P43403)
T1 construct: purchased Upstate Biotechnology, Lake Placid, N.Y
T1 sequence (P43403 1-619): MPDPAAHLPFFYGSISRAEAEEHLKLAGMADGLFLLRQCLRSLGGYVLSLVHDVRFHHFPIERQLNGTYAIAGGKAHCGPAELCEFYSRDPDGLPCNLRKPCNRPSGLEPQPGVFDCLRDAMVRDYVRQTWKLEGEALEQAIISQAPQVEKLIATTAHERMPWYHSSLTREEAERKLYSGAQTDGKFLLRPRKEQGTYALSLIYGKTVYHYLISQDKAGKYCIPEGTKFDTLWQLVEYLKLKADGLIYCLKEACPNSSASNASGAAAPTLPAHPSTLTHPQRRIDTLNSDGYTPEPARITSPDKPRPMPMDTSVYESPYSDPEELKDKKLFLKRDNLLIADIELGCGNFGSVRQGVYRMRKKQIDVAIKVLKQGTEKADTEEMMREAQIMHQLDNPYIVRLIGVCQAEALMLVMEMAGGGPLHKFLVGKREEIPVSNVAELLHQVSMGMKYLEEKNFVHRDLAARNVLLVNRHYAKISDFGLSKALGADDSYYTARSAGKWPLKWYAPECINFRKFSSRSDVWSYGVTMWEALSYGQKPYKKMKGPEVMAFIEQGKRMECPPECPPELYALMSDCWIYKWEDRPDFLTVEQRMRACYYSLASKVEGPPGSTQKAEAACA
Assay: ZAP-70 kinase assay (time-resolved fluorescence resonance energy transfer)
Assay type: biochemical
Conditions: 80 nM ZAP-70, 4 μM ATP, LAT-11 peptide substrate
Description: 1. ZAP-70 Cell-Free Kinase Assays
ZAP-70 and Lck (lymphoid T-cell protein tyrosine kinase) are commercially available from Upstate Biotechnology, Lake Placid, N.Y.
ZAP-70 Kinase assay: The activities of the compounds of invention are determined in a homogenous ZAP-70 kinase assay based on time-resolved fluorescence resonance energy transfer. Briefly, 80 nM ZAP-70 are incubated with 80 nM Lck and 4 μM ATP in ZAP-70 kinase buffer (20 mM Tris, pH 7.5, 10 μM Na3VO4, 1 mM DTT, 1 mM MnCl2, 0.01% bovine serum albumin, 0.05% Tween 20) for 1 hour at room temperature in a siliconized polypropylene tube. Then, the selective Lck inhibitor PP2 (4-amino-5-(4-chloro-phenyl)-7-(t-butyl)pyrazolo[3,4-d]pyrimidine; Alexis Biochemicals) is added (final concentration 1.2 μM) and incubated for further 10 min. Ten μl of this solution is mixed with the 10 μl biotinylated peptide LAT-11 (linker for activation of T cell prepared as disclosed in Example 1A of WO 02/12275, the contents of which, particularly with reference to Example 1A, is incorporated herein by reference; 1 μM) as substrate and 20 μl of serial dilutions of inhibitors and incubated for 4 hours at room temperature. The kinase reaction is terminated with 10 μl of a 10 mM EDTA solution in detection buffer (20 mM Tris, pH 7.5, 0.01% bovine serum albumin, 0.05% Tween 20). The detection phase is performed by addition of 50 μl europium (Eu)-labelled anti-phosphotyrosine antibody (e.g. Eu-PT66; final concentration 0.125 nM; Advant/Wallac) and 50 μl streptavidin-allophycocyanine (SA-APC; final concentration 40 nM) in detection buffer. After 1 hour incubation at room temperature fluorescence is measured, e.g., on the Victor2 Multilabel Counter (VVallac) at 665 nm. Background values (low control) are obtained in the absence of test samples and ATP and are subtracted from all values. Signals obtained in the absence of test samples are taken as 100% (high control). The inhibition obtained in the presence of test compounds is calculated as percent inhibition of the high control. The concentration of test compounds resulting in 50% inhibition (IC50) is determined from the dose-response curves.

Compound	IC50 [nM]
COc1cccc(Nc2ccnc(Nc3ccc4c(c3)NCC4)n2)c1S(N)(=O)=O [Example 141, 2-[2-(2,3-Dihydro-1H-indol-6-ylamino)-pyrimidin-4-ylamino]-6-methoxy-benzenesulfonamide]	183
CNc1cc(Nc2nccc(Nc3cccc(OC)c3S(N)(=O)=O)n2)ccc1C [Example 139, 2-Methoxy-6-[2-(4-methyl-3-methyl-amino-phenylamino)-pyrimidin-4-ylamino]-benzenesulfonamide]	37
CNc1cc(Nc2nccc(Nc3ccc4c(c3S(N)(=O)=O)OCCO4)n2)ccc1C [Example 140, 6-[2-(4-Methyl-3-methylamino-phenylamino)-pyrimidin-4-ylamino]-2,3-dihydro-benzo[1,4]dioxine-5-sulfonic acid amide]	10

Now from value to molecule:

IC50 [nM]	Compound
16	CN1CCN(CCOc2cccc(Nc3nccc(Nc4ccc5c(c4S(N)(=O)=O)OCCO5)n3)c2)CC1 [Example 11]
21	NS(=O)(=O)c1c(Nc2ccnc(Nc3ccc4c(c3)NCC4)n2)ccc2c1OCCO2 [Example 144, 6-[2-(2,3-Dihydro-1H-indol-6-ylamino)-pyrimidin-4-ylamino]-2,3-dihydro-benzo[1,4]dioxine-5-sulfonic acid amide]
13	COCCNc1cc(Nc2nccc(Nc3ccc4c(c3S(N)(=O)=O)OCCO4)n2)ccc1C [Example 57]
